ChEMBL document CHEMBL3045758, “Quantitative Structure-Activity Relationships of Fungicidal N-Phenylformamidoximes” (J Pestic Sci, 1992)

Tests used:
[1] = 1-octanol/water distribution coefficient, log P of the compound; format: physicochemical
Botrytis cinerea [2] = assay: Fungicidal activity against benzimidazole-resistant Botryotinia fuckeliana after 48 hr by poisoned food technique; format: functional, organism-based; settings: Botrytis cinerea, 48 h; read-out: pEC50 (converted)
Phaseolus vulgaris = assay: Phytotoxicity against Phaseolus vulgaris (kidney bean) assessed as necrosis of leaf at 100 ppm after 7 days in greenhouse conditions; format: organism-based; settings: in vivo, 168 h
Botrytis cinerea [3] = assay: Fungicidal activity against benzimidazole-resistant Botryotinia fuckeliana at 200 ppm after 48 hr by poisoned food technique; format: functional
Botrytis cinerea [4] = assay: Fungicidal activity against benzimidazole-resistant Botryotinia fuckeliana infected kidney bean leaf at 100 ppm after 7 days in greenhouse conditions by detached leaf test; format: functional
Botrytis cinerea [5] = assay: Fungicidal activity against benzimidazole-resistant Botryotinia fuckeliana at 6.2 ppm after 48 hr by poisoned food technique; format: functional
Botrytis cinerea [6] = assay: Fungicidal activity against benzimidazole-resistant Botryotinia fuckeliana at 25 ppm after 48 hr by poisoned food technique; format: functional

Structure (SMILES)	logP [1]	EC50 (Botrytis cinerea [2]) [nM]	Activity (Phaseolus vulgaris)	Activity (Botrytis cinerea [3]) [%]	Activity (Botrytis cinerea [4]) [%]	Activity (Botrytis cinerea [5]) [%]	Activity (Botrytis cinerea [6]) [%]
C#CCc1c(Cl)cc(N/C=N/OC(C)C)cc1Cl	3.9	33.1	Non-toxic				
C#CCc1c(Cl)cc(N/C=N/OCC=C)cc1Cl	3.7	67.6	Non-toxic				
C#CCO/N=C/Nc1cc(Cl)c(CC#C)c(Cl)c1	3.3	33.9	Non-toxic				
C#CCc1c(Cl)cc(N/C=N/OCCCC)cc1Cl	4.4	316	Non-toxic				
C#CCc1c(Cl)cc(N/C=N/OC(C)CC)cc1Cl (stereo unspecified)	4.2	158	Non-toxic				
C#CCc1c(Cl)cc(N/C=N/OCC#N)cc1Cl	3	33.9	Non-toxic				
C#CCc1c(Cl)cc(N/C=N/OCOC)cc1Cl	3.2	33.1	Non-toxic				
C#CCc1c(Cl)cc(N/C=N/OCSC)cc1Cl	3.6	31.6	Non-toxic				
C#CCc1c(Cl)cc(N/C=N/OCOCC)cc1Cl	3.5	63.1	Non-toxic				
C#CCc1c(Cl)cc(N/C=N/OCC(=O)OCC)cc1Cl	3.6	1450	Non-toxic				
C#CCc1c(Cl)cc(N/C=N/OCCCl)cc1Cl	3.7	30.9	Non-toxic				
C#CCc1c(Cl)cc(N/C=N/OCCOCC)cc1Cl	3.7	60.3	Non-toxic				
C#CCc1c(Cl)cc(N/C=N/OC/C=C\Cl)cc1Cl	3.9	60.3	Non-toxic				
C#CCc1c(Cl)cc(N/C=N/OC/C=C/Cl)cc1Cl	3.9	302	Non-toxic				
C#CCc1c(Cl)cc(N/C=N/OCc2ccccc2)cc1Cl	4.2	2880	Non-toxic				
C#CCc1c(Cl)cc(N/C=N/Oc2ccccc2)cc1Cl	4.4	295	Non-toxic				
C#CCc1c(Cl)cc(N/C=N/Oc2ccc(C)cc2)cc1Cl	4.8	851	Non-toxic				
CCO/N=C/Nc1ccc(OCC)c(OCC)c1			Non-toxic	100	50	26	70
CCO/N=C/Nc1cc(Cl)c(OCC)c(Cl)c1OCC			Non-toxic	50	<25	<25	<25
CCO/N=C/Nc1cc(Cl)c(F)c(Cl)c1	4	794	<= 10%				
CCO/N=C/Nc1cc(Cl)c(CC)c(Cl)c1	4.8	389	Non-toxic				

Structure (SMILES)	logP [1]	EC50 (Botrytis cinerea [2]) [nM]	Activity (Phaseolus vulgaris)	Activity (Botrytis cinerea [3]) [%]	Activity (Botrytis cinerea [4]) [%]	Activity (Botrytis cinerea [5]) [%]	Activity (Botrytis cinerea [6]) [%]
CCCCc1c(Cl)cc(N/C=N/OCC)cc1Cl	5.6	1740	Non-toxic				
CCO/N=C/Nc1cc(Cl)c(SCC)c(Cl)c1	4.6	170	Non-toxic				
CCO/N=C/Nc1cc(Cl)c(SSCC)c(Cl)c1	5	617	Non-toxic				
CCO/N=C/Nc1cc(Cl)c([S+]([O-])CC)c(Cl)c1 (stereo unspecified)	2.9	162000	Non-toxic				
CCO/N=C/Nc1cc(Cl)c(S(=O)(=O)CC)c(Cl)c1	2.8	30900	<= 10%				
CCO/N=C/Nc1cc(Cl)c(O)c(Cl)c1	2.8	794	Non-toxic				
CCO/N=C/Nc1cc(Cl)c(OC)c(Cl)c1	3.7	191	Non-toxic				
CCCOc1c(Cl)cc(N/C=N/OCC)cc1Cl	4.6	174	Non-toxic				
CCO/N=C/Nc1cc(Cl)c(OC(C)C)c(Cl)c1	4.4	6920	<= 10%				
C=CCOc1c(Cl)cc(N/C=N/OCC)cc1Cl	4.3	34.7	Non-toxic				
C#CCOc1c(Cl)cc(NC=NOCC)cc1Cl	3.6	17.4	Non-toxic				
CCO/N=C/Nc1cc(Cl)c(OCC(C)C)c(Cl)c1	5	16200	<= 10%				
CC#CCOc1c(Cl)cc(N/C=N/OCC)cc1Cl	4	166	Non-toxic				
CCO/N=C/Nc1cc(Cl)c(OCC#N)c(Cl)c1	3.1	174	Non-toxic				
CCO/N=C/Nc1cc(Cl)c(OCOC)c(Cl)c1	3.7	174	Non-toxic				
CCO/N=C/Nc1cc(Cl)c(OCCCl)c(Cl)c1	4	32.4	Non-toxic				
C#CCc1c(Cl)cc(N/C=N/O)cc1Cl	2.8	77.6	Non-toxic				
C#CCc1c(Cl)cc(N/C=N/OCCC)cc1Cl	4	33.1	Non-toxic				
CCO/N=C/Nc1ccccc1			Non-toxic	<25	<25	<25	<25
CCO/N=C/Nc1ccccc1Cl			<= 10%	100	<25	<25	<25
CCO/N=C/Nc1cccc(Cl)c1			<= 10%	50	<25	<25	<25

Structure (SMILES)	logP [1]	EC50 (Botrytis cinerea [2]) [nM]	Activity (Phaseolus vulgaris)	Activity (Botrytis cinerea [3]) [%]	Activity (Botrytis cinerea [4]) [%]	Activity (Botrytis cinerea [5]) [%]	Activity (Botrytis cinerea [6]) [%]
CCO/N=C/Nc1ccc(Cl)cc1			Non-toxic	70	<25	<25	<25
CCO/N=C/Nc1ccccc1CC			Non-toxic	100	<25	26	100
CCO/N=C/Nc1cccc(CC)c1			Non-toxic	70	<25	<25	<25
CCO/N=C/Nc1ccc(CC)cc1			Non-toxic	26	<25	<25	<25
CCO/N=C/Nc1ccccc1OCC			Non-toxic	100	<25	<25	100
CCO/N=C/Nc1cccc(OCC)c1			Non-toxic	100	<25	<25	26
CCO/N=C/Nc1ccc(OCC)cc1			Non-toxic	50	<25	<25	<25
CCO/N=C/Nc1cccc(Cl)c1Cl			11%	100	<25	<25	<25
CCO/N=C/Nc1ccc(Cl)cc1Cl			<= 10%	100	<25	<25	<25
CCO/N=C/Nc1cc(Cl)ccc1Cl			Non-toxic	70	<25	<25	<25
CCO/N=C/Nc1c(Cl)cccc1Cl			> 31%	90	<25	<25	<25
CCO/N=C/Nc1ccc(Cl)c(Cl)c1			11%	70	<25	<25	<25
CCO/N=C/Nc1c(C)cccc1C			11%	<25	<25	<25	<25
CCO/N=C/Nc1cc(C)cc(C)c1			Non-toxic	90	<25	<25	<25
CCO/N=C/Nc1cc(OCC)ccc1OCC			Non-toxic	100	<25	70	100
CCO/N=C/Nc1c(Cl)c(Cl)cc(Cl)c1Cl [N'-ETHOXY-N-(2,3,5,6-TETRACHLOROPHENYL)FORMIMIDAMIDE]			Non-toxic	<25	<25	<25	<25
CCO/N=C/Nc1cc(Cl)c(Cl)cc1Cl [N'-ETHOXY-N-(2,4,5-TRICHLOROPHENYL)FORMIMIDAMIDE]			Non-toxic	26	<25	<25	<25
CCO/N=C/Nc1c(Cl)cc(Cl)cc1Cl [N'-ETHOXY-N-(2,4,6-TRICHLOROPHENYL)FORMIMIDAMIDE]			11%	100	<25	<25	<25
CCO/N=C/Nc1cc(C)cc(C)c1OCC [N'-ETHOXY-N-(2-ETHOXY-3,5-DIMETHYLPHENYL)FORMIMIDAMIDE]			Non-toxic	100	<25	50	100
